Measurements: US6040149A, “Assay for identifying agents which act on the ceramide-activated protein kinase, kinase suppressor of ras, and methods of using said agents” (priority 1997, dated 2000)

What was measured:
[1] = target: T1, KSR (Mus musculus, UniProt Q61097); experiment: KSR autophosphorylation in vitro; format: biochemical, mouse (KSR immunoprecipitated from COS-7 cells); design: Raf-1 peptides as substrate
T1 sequence (Q61097 1-873): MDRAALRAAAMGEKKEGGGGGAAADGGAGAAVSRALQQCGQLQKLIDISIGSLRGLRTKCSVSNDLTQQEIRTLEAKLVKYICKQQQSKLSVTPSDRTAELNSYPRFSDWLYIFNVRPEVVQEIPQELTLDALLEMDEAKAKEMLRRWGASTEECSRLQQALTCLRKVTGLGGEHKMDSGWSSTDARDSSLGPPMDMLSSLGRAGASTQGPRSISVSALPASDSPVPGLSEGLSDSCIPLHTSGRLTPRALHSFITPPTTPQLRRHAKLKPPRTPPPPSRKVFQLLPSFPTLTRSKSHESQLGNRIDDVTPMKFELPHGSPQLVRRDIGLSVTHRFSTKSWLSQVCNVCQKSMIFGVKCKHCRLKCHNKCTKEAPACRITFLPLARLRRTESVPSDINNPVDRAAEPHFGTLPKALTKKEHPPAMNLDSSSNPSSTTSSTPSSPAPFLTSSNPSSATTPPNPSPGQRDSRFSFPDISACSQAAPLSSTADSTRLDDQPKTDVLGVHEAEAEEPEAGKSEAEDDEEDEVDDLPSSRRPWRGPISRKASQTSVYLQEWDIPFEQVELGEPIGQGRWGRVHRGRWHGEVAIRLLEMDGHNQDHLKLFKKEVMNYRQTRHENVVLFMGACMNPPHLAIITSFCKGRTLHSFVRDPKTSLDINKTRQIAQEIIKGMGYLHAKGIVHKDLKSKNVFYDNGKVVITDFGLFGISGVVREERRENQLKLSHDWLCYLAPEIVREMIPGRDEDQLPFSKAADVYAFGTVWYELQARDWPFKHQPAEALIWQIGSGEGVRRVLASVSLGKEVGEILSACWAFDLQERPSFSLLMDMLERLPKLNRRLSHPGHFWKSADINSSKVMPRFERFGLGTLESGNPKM
Method: Phosphorylated KSR was resolved and detected as in FIG. 2A.
KSR was immunoprecipitated as above from 0.8 mg NP-40 lysate protein with 40 μl agarose-conjugated anti-Flag antibody at 4° C. for 4 hrs or overnight. […] The reaction was stopped by addition of Laemmli sample buffer. Samples were resolved by 7.5% sodium dodecyl sulfate-polyacrylamide gel electrophoresis (SDS-PAGE) and autoradiographed.

[2] = tested on: EL-4 cells; experiment: Sphingomyelin and ceramide levels in intact EL-4 cells; format: cell-based, murine; details: maximally effective concentrations (n=5)
Method: IL-1β effects on sphingomyelin levels in EL4 cells. Time course (A) and dose response (B). Cells were grown to growth arrest (1-1.5×10^6 cells ml^-1) in DME/Ham's F12 medium (1:1, v/v) containing 10% horse serum and for 48 hours [^3 H]choline (1 μCi ml^-1). On the day of an experiment, cells were resuspended back into the same medium at 10×10^6 cells ml^-1 and stimulated with 40 ng ml^-1 IL-1β for the indicated times (A) or for 30 minutes with increasing concentrations of IL-1β (B). Human IL-1β may be obtained using methods well known to those skilled in the art. Reactions were terminated with CHCl3 :CH3 OH:HCl (100:100:1) containing 10 mM EDTA (82). Lipids in the organic phase extract were dried under N2 and subjected to mild alkaline hydrolysis (0.1 M methanolic KOH for 1 hour at 37° C.) to remove glycerophospholipids. Sphingomyelin was resolved by thin-layer chromatography (TLC) using CHCl3 :CH3 OH:CH3 COOH:H2 O (60:30:8:5) as solvent, identified by iodine vapor staining, and quantified by liquid scintillation spectrometry. As previously reported, the use of [^3 H]choline as a measure of sphingomyelin content was validated by simultaneous phospholipid phosphorus measurements. Each value represents the mean±SEM of triplicate determinations from four experiments in (A), and one representative of four similar studies performed in triplicate in (B).
Effect of IL-1β on ceramide levels in EL-4 cells. Cells were stimulated as in FIG. 12 with IL-1β (40 ng ml^-1) and ceramide contained within the organic phase extract quantified enzymatically using the E. coli diacylglycerol kinase reaction. Lipids were resolved by TLC using CHCl3 :CH3 OH:CH3 COOH (65/15/5) as solvent, autoradiographed and quantified by liquid scintillation spectrometry. Each value represents the mean±SEM of triplicate determinations from 10 experiments.
The murine thymoma EL-4 cell line is a well-defined IL-1 responsive cell line that expresses functional IL-1 receptors. Upon stimulation with IL-1, these cells up-regulate the IL-2 receptor and secrete IL-2 [62]. Initial studies were designed to investigate the effects of IL-1β on cellular sphingomyelin content. Cells, grown in Dulbecco's Modified Eagle's (DME)/Ham's F-12 medium containing 10% horse serum and [^3 H]choline (1 μCi ml^-1), were resuspended back into the same medium at 10×10^6 cells ml^-1 and stimulated with IL-1β. IL-1β is commercially available.

[3] = target: T1, KSR; experiment: Phosphorylation and activation of recombinant Raf-1 by KSR immunoprecipitated from treated COS-7 cells; format: cell-based, mouse (KSR expressed in COS-7 cells); details: C2-ceramide 1 μM; TNFα 10 nM
Method: FIGS. 23B-23C--COS-7 cells expressing Flag-tagged KSR were stimulated with 1 μM C2-ceramide for 10 min and lysed with NP-40 buffer as in FIG. 23A. […] The autoradiogram was exposed for 1 hour. Data represent one of three experiments.
COS-7 cells expressing Flag-tagged KSR were stimulated with 10 nM TNFα for the times indicated and lysed with NP-40 buffer as in FIG. 2A. […] The autoradiogram was exposed for 1 hour. Data represent one of three similar experiments.
Immunoprecipitated KSR was incubated with reaction buffer A containing 0.5 mM ATP and a protein kinase inhibitor cocktail [20 μM PKC inhibitor peptide (UBI), 2 μM protein kinase A inhibitor peptide (UBI) and 20 μM R24571 (Sigma)] for 30 min at 22° C.

Compound	effect on activation of KSR [1]	ceramide response [2]	activity of immunoprecipitated KSR to phosphorylate and activate Raf-1 [3]
CCCCCCCCCCCCCC(=O)O[C@@H]1[C@@H](C)[C@@]2(O)[C@@H](C=C(CO)C[C@]3(O)C(=O)C(C)=C[C@@H]23)[C@@H]2C(C)(C)[C@]12OC(C)=O [TPA, 12-0-tetradecanoylphorbol-13-acetate]	no effect	failed to elicit a ceramide response	–
TNF-α	–	–	stimulated dramatically
